Experimental data from US8198322B2, “Apoptotic and anti-tumor activities of metallo-salens” (Board of Regents, The University of Texas System, priority 2008, dated 2012).
Values joined by “and” are separate entries in the source; they are usually repeats but may differ in a detail not shown here. Equal values may be shown once. “Also recorded” adds a separate entry of the source.

Experiments:
MCF-7 cells [1] = test: Cytotoxicity assay (IC50 measurement, MTT); assay type: cell-based, human; conditions: MCF-7, 96 hrs, read-out: IC50 values for different complexes in MCF-7 cells
Experimental: Cytotoxicity assay (IC50 measurement): The cytotoxicity of Fe(III)-salen and its derivatives was determined by using MTT assay as described previously^42. In brief, approximately 10,000 MCF-7 cells were seeded into each well of a 96 well micro titer plate and incubated 24 hrs in presence of 150 μL DMEM. An additional 50 μL DMEM containing required amount of each metallo-salen to obtain 0.05 to 60 μM final concentration (in 200 μL final volume) in 8 replicate wells were added. Control wells were treated with equivalent amount of DMSO. After 96 hrs of incubation, 20 μL of MTT (5 mg/mL) was added into each well and cell viability was assayed by measuring the formazan absorption at 560 nm as described above. The absorbance (at 560 nm) values were plotted against concentration of metallo-salens to determine the IC50. The studies were repeated twice with 8 replicates each time.
The concentration of the metal-complexes at which the conversion of MTT to formazan by viable cells is reduced by 50% compared to control cells is defined as the IC50. The percent of cell survival relative to the control cells were plotted as a function of concentration of the metallo-salen derivatives.

MCF-7 cells [2] = test: Cell viability assay (MTT, DIC microscopy) at 20 μM; assay type: cell-based, human; parameters: key to Summary of cell viability activities (active/inactive): Y and N indicates active and inactive compounds respectively; Y and N indicates active and inactive compounds respectively; conditions: for Summary of cell viability activities (active/inactive): MCF-7 cells, 20 μM, 24-96 hrs, MTT; for effect on cell viability (in words): MCF-7, 20 μM, up to 96 hrs
Experimental: (A-F): MCF-7 cells were treated with 20 μM metallo-salens and incubated for varying time periods (24-96 hrs). Viable cells were quantified using MTT assay. The percent viable cells (relative to control, treated with equivalent amount of DMSO) were plotted as a function of time for each compound. This experiment was repeated twice with 8 replicate treatments each time. Bars indicates standard errors of mean (SEM). Curves 1-42 in FIGS. 2A-2F, represent the viability curves for compounds 1-42 respectively. (A′-F′) DIC images of the corresponding MCF-7 cells that were treated with DMSO (control panel), or with 20 μM Mn(III)- and Fe(III)-salen complexes for 72 hrs showing the visual effects on cellular morphology and growth/death.
Cell viability assay: Approximately 10,000 MCF-7 cells were seeded into each well of a 96 well micro titer plate and incubated 24 hrs in presence of 150 μL DMEM. An additional 50 μL DMEM containing required amount of each metallo-salen to obtain 20 μM final concentrations (in 200 μL final volume) in 8 replicate wells were added. Control wells were treated with equivalent amount of dimethylsulfoxide (DMSO). The viability of the cells was assayed at 24, 48, 72 and 96 hrs post treatment by using both microscopic observation and MTT assay. For microscopic observation cells were stained with trypan blue for at least 10 minute and observed under Differential Interference Contrast (DIC) setting of a fluorescence microscope (Nikon Eclipse TE2000-U, Japan). The MTT assay was performed as described previously^42. In brief, 20 μL MTT (5 mg/ml in PBS) was added into each wells and incubated for 2 hrs under normal growth condition to allow the viable cell to convert MTT to formazan. Then the media was discarded and formazan crystals were dissolved by adding 100 μL of DMSO and incubating 2 hrs with continuous shaking. The absorbance of the lysates were directly measured at 560 nm using a micro plate reader (Fluostar-omega, BMG Labtech). The absorbance values (which are proportional to the viable cell) are plotted as a function of time. The studies were repeated twice with 8 replicates each time.
The inventors studied the effect of Mn(III)-salen and Fe(III)-salen derivatives on the cell viability of cultured breast cancer cells MCF-7 in order to investigate the biochemical effects of the derivatives. The cells were incubated alone or with 20 μM of each of the metallo-salen derivatives separately (compounds 1-45) for varying time periods (0-96 hrs). The viable cells were quantified using MTT assay and the percent of cell survived (relative to the control untreated cells) were plotted against time (FIGS. 2A-2F).

5,5′-Dimethoxysalnaphen Fe(III) chloride [compound 42]
IC50 (MCF-7 cells [1]): 1.24 µM
Summary of cell viability activities (active/inactive) (MCF-7 cells [2]): Y (42)

N.N.[Cl][Pt][Cl] [cis-platin, Cis-diaminodichloro-platinum(II), reference compound]
IC50 (MCF-7 cells [1]): ~20 µM

CC(=O)[O-].[Mn+3].[O-]c1ccccc1C=NCCN=Cc1ccccc1[O-] [compound 1, Mn(III)-salen acetate]
IC50 (MCF-7 cells [1]): 20.4 µM and 20.5 µM
Summary of cell viability activities (active/inactive) (MCF-7 cells [2]): Y^b (1)

CC(=O)[O-].[Mn+3].[O-]c1c(O)cccc1C=NCCN=Cc1cccc(O)c1[O-] [compound 2, 3,3′-Dihydroxysalen Mn(III) acetate]
IC50 (MCF-7 cells [1]): 37 µM
Summary of cell viability activities (active/inactive) (MCF-7 cells [2]): Y (2)

CC(=O)[O-].[Mn+3].[O-]c1cc(O)ccc1C=NCCN=Cc1ccc(O)cc1[O-] [compound 3, 4,4′-Dihydroxysalen Mn(III) acetate]
effect on cell viability (in words) (MCF-7 cells [2]): did not have any significant effect on cell viability; also recorded: not active
Summary of cell viability activities (active/inactive) (MCF-7 cells [2]): N^b (3)

CC(=O)[O-].[Mn+3].[O-]c1ccc(O)cc1C=NCCN=Cc1cc(O)ccc1[O-] [compound 4, 5,5′-Dihydroxysalen Mn(III) acetate]
IC50 (MCF-7 cells [1]): 43.1 µM
effect on cell viability (in words) (MCF-7 cells [2]): effective in inducing cell death
Summary of cell viability activities (active/inactive) (MCF-7 cells [2]): Y (4)

CC(=O)[O-].COc1cccc(C=NCCN=Cc2cccc(OC)c2[O-])c1[O-].[Mn+3] [compound 5, 3,3′-Dimethoxysalen Mn(III) acetate]
IC50 (MCF-7 cells [1]): 17.7 µM
Summary of cell viability activities (active/inactive) (MCF-7 cells [2]): Y (5)

CC(=O)[O-].COc1ccc([O-])c(C=NCCN=Cc2cc(OC)ccc2[O-])c1.[Mn+3] [compound 7, 5,5′-Dimethoxysalen Mn(III) acetate]
IC50 (MCF-7 cells [1]): 16.1 µM
Summary of cell viability activities (active/inactive) (MCF-7 cells [2]): Y (7)

CC(=O)[O-].[Mn+3].[O-]c1ccccc1C=Nc1ccccc1N=Cc1ccccc1[O-] [compound 8, Mn(III)-salphen acetate]
IC50 (MCF-7 cells [1]): 15 µM
Summary of cell viability activities (active/inactive) (MCF-7 cells [2]): Y (8)

CC(=O)[O-].[Mn+3].[O-]c1cc(O)ccc1C=Nc1ccccc1N=Cc1ccc(O)cc1[O-] [compound 10, 4,4′-Dihydroxysalphen Mn(III) acetate]
effect on cell viability (in words) (MCF-7 cells [2]): not active
Summary of cell viability activities (active/inactive) (MCF-7 cells [2]): N (10)

CC(=O)[O-].[Mn+3].[O-]c1ccc(O)cc1C=Nc1ccccc1N=Cc1cc(O)ccc1[O-] [compound 11, 5,5′-Dihydroxysalphen Mn(III) acetate]
IC50 (MCF-7 cells [1]): 45.6 µM
effect on cell viability (in words) (MCF-7 cells [2]): effective in inducing cell death
Summary of cell viability activities (active/inactive) (MCF-7 cells [2]): Y (11)

CC(=O)[O-].COc1cccc(C=Nc2ccccc2N=Cc2cccc(OC)c2[O-])c1[O-].[Mn+3] [compound 12, 3,3′-Dimethoxysalphen Mn(III) acetate]
IC50 (MCF-7 cells [1]): 22.2 µM
Summary of cell viability activities (active/inactive) (MCF-7 cells [2]): Y (12)

CC(=O)[O-].COc1ccc(C=Nc2ccccc2N=Cc2ccc(OC)cc2[O-])c([O-])c1.[Mn+3] [compound 13, 4,4′-Dimethoxysalphen Mn(III) acetate]
IC50 (MCF-7 cells [1]): 15.5 µM and 15.6 µM
effect on cell viability (in words) (MCF-7 cells [2]): most effective on inducing cell death
Summary of cell viability activities (active/inactive) (MCF-7 cells [2]): Y (13)

CC(=O)[O-].COc1ccc([O-])c(C=Nc2ccccc2N=Cc2cc(OC)ccc2[O-])c1.[Mn+3] [compound 14, 5,5′-Dimethoxysalphen Mn(III) acetate]
IC50 (MCF-7 cells [1]): 55.9 µM
Summary of cell viability activities (active/inactive) (MCF-7 cells [2]): Y (14)

CC(=O)[O-].[Mn+3].[O-]c1ccccc1C=Nc1cc2ccccc2cc1N=Cc1ccccc1[O-] [compound 15, Mn(III)-salnaphen acetate]
IC50 (MCF-7 cells [1]): 15.5 µM and 15.6 µM
effect on cell viability (in words) (MCF-7 cells [2]): most effective on inducing cell death
Summary of cell viability activities (active/inactive) (MCF-7 cells [2]): Y (15)

CC(=O)[O-].[Mn+3].[O-]c1cc(O)ccc1C=Nc1cc2ccccc2cc1N=Cc1ccc(O)cc1[O-] [compound 17, 4,4′-Dihydroxysalnaphen Mn(III) acetate]
IC50 (MCF-7 cells [1]): 21.4 µM
effect on cell viability (in words) (MCF-7 cells [2]): effective in inducing cell death
Summary of cell viability activities (active/inactive) (MCF-7 cells [2]): Y (17)

CC(=O)[O-].[Mn+3].[O-]c1ccc(O)cc1C=Nc1cc2ccccc2cc1N=Cc1cc(O)ccc1[O-] [compound 18, 5,5′-Dihydroxysalnaphen Mn(III) acetate]
effect on cell viability (in words) (MCF-7 cells [2]): inactive
Summary of cell viability activities (active/inactive) (MCF-7 cells [2]): N (18)

CC(=O)[O-].COc1cccc(C=Nc2cc3ccccc3cc2N=Cc2cccc(OC)c2[O-])c1[O-].[Mn+3] [compound 19, 3,3′-Dimethoxysalnaphen Mn(III) acetate]
IC50 (MCF-7 cells [1]): 39.7 µM
Summary of cell viability activities (active/inactive) (MCF-7 cells [2]): Y (19)

CC(=O)[O-].COc1ccc(C=Nc2cc3ccccc3cc2N=Cc2ccc(OC)cc2[O-])c([O-])c1.[Mn+3] [compound 20, 4,4′-Dimethoxysalnaphen Mn(III) acetate]
IC50 (MCF-7 cells [1]): 20.4 µM and 20.5 µM
Summary of cell viability activities (active/inactive) (MCF-7 cells [2]): Y (20)

[Cl-].[Fe+3].[O-]c1c(O)cccc1C=NCCN=Cc1cccc(O)c1[O-] [compound 23, 3,3′-Dihydroxysalen Fe(III) chloride]
Summary of cell viability activities (active/inactive) (MCF-7 cells [2]): N (23)

[Cl-].[Fe+3].[O-]c1cc(O)ccc1C=NCCN=Cc1ccc(O)cc1[O-] [compound 24, 4,4′-Dihydroxysalen Fe(III) chloride]
Summary of cell viability activities (active/inactive) (MCF-7 cells [2]): N (24)

[Cl-].[Fe+3].[O-]c1ccc(O)cc1C=NCCN=Cc1cc(O)ccc1[O-] [compound 25, 5,5′-Dihydroxysalen Fe(III) chloride]
Summary of cell viability activities (active/inactive) (MCF-7 cells [2]): N (25)

COc1cccc(C=NCCN=Cc2cccc(OC)c2[O-])c1[O-].[Cl-].[Fe+3] [compound 26, 3,3′-Dimethoxysalen Fe(III) chloride]
effect on cell viability (in words) (MCF-7 cells [2]): did not show any significant effect on cell viability
Summary of cell viability activities (active/inactive) (MCF-7 cells [2]): N (26)

[Cl-].[Fe+3].[O-]c1cc(O)ccc1C=Nc1ccccc1N=Cc1ccc(O)cc1[O-] [compound 31, 4,4′-Dihydroxysalphen Fe(III) chloride]
effect on cell viability (in words) (MCF-7 cells [2]): did not have any effects on cell viability
Summary of cell viability activities (active/inactive) (MCF-7 cells [2]): N (31)

[Cl-].[Fe+3].[O-]c1ccc(O)cc1C=Nc1ccccc1N=Cc1cc(O)ccc1[O-] [compound 32, 5,5′-Dihydroxysalphen Fe(III) chloride]
effect on cell viability (in words) (MCF-7 cells [2]): did not have any effects on cell viability
Summary of cell viability activities (active/inactive) (MCF-7 cells [2]): N (32)

[Cl-].[Fe+3].[O-]c1cc(O)ccc1C=Nc1cc2ccccc2cc1N=Cc1ccc(O)cc1[O-] [compound 38, 4,4′-Dihydroxysalnaphen Fe(III) chloride]
effect on cell viability (in words) (MCF-7 cells [2]): did not have any effects on cell viability
Summary of cell viability activities (active/inactive) (MCF-7 cells [2]): N (38)

[Cl-].[Fe+3].[O-]c1ccc(O)cc1C=Nc1cc2ccccc2cc1N=Cc1cc(O)ccc1[O-] [compound 39, 5,5′-Dihydroxysalnaphen Fe(III) chloride]
effect on cell viability (in words) (MCF-7 cells [2]): did not have any effects on cell viability
Summary of cell viability activities (active/inactive) (MCF-7 cells [2]): N (39)

[Cl-].[Fe+3].[O-]c1ccccc1C=NCCCN=Cc1ccccc1[O-] [compound 43, Bis(salicylidene)propanediamine Fe(III) chloride]
effect on cell viability (in words) (MCF-7 cells [2]): almost no cell killing activity

[Cl-].[Fe+3].[O-]c1ccccc1C=NCCCCN=Cc1ccccc1[O-] [compound 44, Bis(salicylidene)butanediamine Fe(III) chloride]
effect on cell viability (in words) (MCF-7 cells [2]): almost no cell killing activity

Fe(III)-carboxysalphen] chloride [compound 45]
effect on cell viability (in words) (MCF-7 cells [2]): almost no cell killing activity
